Molecules are shown by their SMILES.

This assay has as its target T1, PYL10 (Arabidopsis thaliana, UniProt Q8H1R0).
T1 sequence (Q8H1R0 1-183): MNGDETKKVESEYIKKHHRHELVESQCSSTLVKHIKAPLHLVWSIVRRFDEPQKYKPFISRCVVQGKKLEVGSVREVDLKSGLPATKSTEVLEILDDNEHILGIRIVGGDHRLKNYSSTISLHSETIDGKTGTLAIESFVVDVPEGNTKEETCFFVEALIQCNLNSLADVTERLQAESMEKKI
Kind of assay: ITC at […] °C, pH […]; supported by 1H-15N HSQC NMR titration and HAB1 phosphatase assay. It is filed as binding.

What is called Kd is the equilibrium constant for the complex coming apart. The low end stands for higher affinity, the high end for lower affinity. With `CC1=CC(=O)CC(C)(C)[C@@]1(O)/C=C/C(C)=C\C(=O)O` [abscisic acid], binding was characterised by a dissociation constant (Kd) of 66.2 ± 13.9 µM.

Source of the values: paper PMC4456664, “The HAB1 PP2C is inhibited by ABA-dependent PYL10 interaction” (Scientific Reports, 2015).
